Data on eleven molecules can be found in PMC5493393 (Journal of medicinal chemistry, 2017).

In experiment [1] the target is T1, KOR (Homo sapiens, UniProt P41145). It is filed as binding. Conditions: for LE (Ligand Efficiency): LE = 1.4(−logKi)/N.
Experiment [2] concerns the target T1, KOR. In words: KOR-arrestin translocation. It counts as cell-based. The note with it: for agonist activity in β-arrestin recruitment: agonist mode, normalized to Sal A. (In general: Activated receptors often draw arrestin, which recruitment assays turn into a signal.)
Experiment [3] concerns the target DOR (Homo sapiens, UniProt P41143). Briefly: Gi-mediated inhibition of cAMP production at DOR. It counts as cell-based. Conditions: relative to KOR agonist activity; Figure S1. For orientation: Cyclic AMP is a second messenger, typically raised through Gs and lowered through Gi signalling.
Experiment [4] addresses MOR (Homo sapiens, UniProt P35372). Briefly: Gi-mediated inhibition of cAMP production at MOR. Conditions: relative to KOR agonist activity; Figure S1. It counts as cell-based.
Experiment [5] has as its target T1, KOR. Briefly: Gi-mediated inhibition of cAMP production. It is filed as cell-based.
For experiment [6], the system named is KOR M142A mutant. In words: 3H-U69593 binding at KOR single point mutant M142A. The note with it: vs wild type KOR.
For experiment [7], the system named is KOR H291A mutant. In words: 3H-U69593 binding at KOR single point mutant H291A. Conditions: vs wild type KOR.
Experiment [8] has as its system KOR I294A mutant. In words: 3H-U69593 binding at KOR single point mutant I294A. The note with it: vs wild type KOR.
Setting [9] is: inhibition of Sal A mediated Gi activation.

As for `CC(c1cccc(O)c1)N(C)Cc1nccn1CC(F)(F)F` (stereo not drawn) [Compound 28], the “%Inhib ± SEM (inhibition of 3H-U69593 radioligand binding)” value in experiment [1] (Table 1 VLS hits, 50 μM compound, SEM, N=3) is 96.9 ± 1.2%. Besides, the “agonist activity in β-arrestin recruitment” value in experiment [2] is on record as “measurable β-arrestin recruitment activity”. The “reduction of agonist activity at DOR” value in experiment [3] is given as “at least 50%”. The “reduction of agonist activity at MOR” value in experiment [4] is listed as “at least 50%”.
As to `Oc1cccc(C(O)CNCc2ccc(Cl)cc2Cl)c1` (stereo not drawn) [Compound 64], the “LE (Ligand Efficiency)” value in experiment [1] (Table 2 derivatives) was determined as 0.47 kcal/mol per heavy atom. The “antagonist activity: inhibition of Sal A-induced β-arrestin recruitment” value in experiment [2] (antagonist mode, 30 nM Sal A, normalized to 5-GNTI) is “completely inhibiting”. In addition, the “functional profile, arrestin versus G-protein assays” value in experiment [5] (comparison of β-arrestin (Tango) and Gi-cAMP assays) was “balanced antagonist”. For the same molecule, in experiment [5] (setting [9]), the Schild slope was 1.15 ± 0.06 and the “pA2 (Schild analysis)” value was 6.78 ± 0.11. For the same molecule, the “effect of M142A mutation on ligand binding (fold reduction of binding vs WT KOR)” value (“effect … (fold reduction of binding vs WT KOR)” for short) in experiment [6] is recorded as “at least 10 fold”. In experiment [7], the “effect of H291A mutation on ligand affinity (fold reduction vs WT KOR)” value is reported as “more than 10 fold”. Further, the “effect of I294A mutation on ligand affinity (fold reduction vs WT KOR)” value in experiment [8] is given as “more than 10 fold”.
In the case of `COc1ccc(CNCC(O)c2cccc(O)c2)cc1Br` (stereo not drawn) [Compound 67], the “effect … (fold reduction of binding vs WT KOR)” value in experiment [6] is “at least 10 fold”. Moreover, the “effect of H291A mutation on ligand affinity (fold reduction vs WT KOR)” value in experiment [7] is on record as “more than 10 fold”. The “effect of I294A mutation on ligand affinity (fold reduction vs WT KOR)” value in experiment [8] was “more than 10 fold”.
As to `Cc1ccc(C(CNC(=O)c2oc3ccccc3c2C)N2CCCC2)o1` (stereo not drawn) [Compound 69], the “effect … (fold reduction of binding vs WT KOR)” value in experiment [6] is on record as “enhancing binding”.
Take `Cc1ccc(C(CNC(=O)c2oc3ccc(F)cc3c2C)N2CCCC2)o1` (stereo not drawn) [Compound 70]: in experiment [1] (Table 2 derivatives), the “LE (Ligand Efficiency)” value was 0.32 kcal/mol per heavy atom. The “effect … (fold reduction of binding vs WT KOR)” value in experiment [6] is reported as “enhancing binding”.
In the case of `O=C(NC[C@@H](c1ccco1)N1CCCC1)c1cc2ccccc2o1` [Compound 71], the “LE (Ligand Efficiency)” value in experiment [1] (Table 2 derivatives) is on record as 0.35 kcal/mol per heavy atom.
Consider `Cc1c(C(=O)NCC(c2ccco2)N2CCCC2)oc2ccc(Cl)cc12` (stereo not drawn) [Compound 72], for which the “effect … (fold reduction of binding vs WT KOR)” value in experiment [6] was “enhancing binding”.
With `COc1ccc2oc(C(=O)NCC(c3ccco3)N3CCCC3)c(C)c2c1` (stereo not drawn) [Compound 73], the “LE (Ligand Efficiency)” value in experiment [1] (Table 2 derivatives) came to 0.32 kcal/mol per heavy atom.
On to `CC(NCc1nccn1C)c1cccc(O)c1` (stereo not drawn) [Compound 81], for which the “%Inhib (inhibition of 3H-U69593 radioligand binding)” value in experiment [1] (Table 2 derivatives, 50 μM compound, N=3) amounted to 78.81%. The “agonist activity in β-arrestin recruitment” value in experiment [2] is recorded as “minimal β-arrestin recruitment”. In experiment [3], the “reduction of agonist activity at DOR” value was not below 70%. Further, the “reduction of agonist activity at MOR” value in experiment [4] is on record as not below 70%.
On to `CCN(Cc1csc(C)n1)C(C)c1cccc(O)c1` (stereo not drawn) [Compound 87], for which, in experiment [7], the “effect of H291A mutation on ligand affinity (fold reduction vs WT KOR)” value was “more than 10 fold”. Moreover, the “effect of I294A mutation on ligand affinity (fold reduction vs WT KOR)” value in experiment [8] is recorded as “more than 10 fold”.
As for `COC(=O)[C@@H]1C[C@H](OC(C)=O)C(=O)[C@H]2[C@@]1(C)CC[C@H]1C(=O)O[C@H](c3ccoc3)C[C@]21C` [Sal A, salvinorin A, reference compound], the “effect … (fold reduction of binding vs WT KOR)” value in experiment [6] is listed as “at least 10 fold”. Moreover, the “effect of H291A mutation on ligand affinity (fold reduction vs WT KOR)” value in experiment [7] is given as “not affecting binding”. In experiment [8], the “effect of I294A mutation on ligand affinity (fold reduction vs WT KOR)” value was “not affecting binding”.
